One block for each compound: values may come before it. Calls of active or inactive are those of the source. The calls are words filed in the database; no cut-off is given here.
Tests used:
[1] = biological target: Voltage-dependent T-type calcium channel subunit alpha-1H (Homo sapiens) (UniProt O95180); test: Antagonist activity against T-type calcium channel subunit alpha-1H assessed as inactivation of channel current at 1 uM by cell based patch clamp assay; format: functional
[2] = biological target: Voltage-dependent L-type calcium channel subunit alpha-1C (Homo sapiens) (UniProt Q13936); test: Antagonist activity against L-type calcium channel subunit alpha-1C assessed as inactivation of channel current at 0.1 uM by cell based patch clamp assay
[3] = Selectivity for T-type calcium channel subunit alpha-1H over L-type calcium channel subunit alpha-1C
[4] = biological target: Voltage-dependent T-type calcium channel subunit alpha-1H (Homo sapiens) (UniProt O95180); test: Antagonist activity against T-type calcium channel subunit alpha-1H assessed as inactivation of channel current at 0.03 uM by cell based patch clamp assay; format: functional
[5] = biological target: Voltage-dependent L-type calcium channel subunit alpha-1C (Homo sapiens) (UniProt Q13936); test: Antagonist activity against L-type calcium channel subunit alpha-1C assessed as inactivation of channel current at 0.3 uM by cell based patch clamp assay
[6] = biological target: Voltage-dependent T-type calcium channel subunit alpha-1H (Homo sapiens) (UniProt O95180); test: Antagonist activity against T-type calcium channel subunit alpha-1H assessed as inactivation of channel current at 0.3 uM by cell based patch clamp assay; format: functional
[7] = biological target: Voltage-dependent L-type calcium channel subunit alpha-1C (Homo sapiens) (UniProt Q13936); test: Antagonist activity against L-type calcium channel subunit alpha-1C assessed as inactivation of channel current at 3 uM by cell based patch clamp assay
[8] = biological target: Voltage-dependent T-type calcium channel subunit alpha-1H (Homo sapiens) (UniProt O95180); test: Antagonist activity against T-type calcium channel subunit alpha-1H assessed as inactivation of channel current at 3 uM by cell based patch clamp assay; format: functional
[9] = biological target: Voltage-dependent T-type calcium channel subunit alpha-1H (Homo sapiens) (UniProt O95180); test: Antagonist activity against T-type calcium channel subunit alpha-1H assessed as inactivation of channel current at 0.1 uM by cell based patch clamp assay; format: functional
[10] = biological target: Voltage-dependent L-type calcium channel subunit alpha-1C (Homo sapiens) (UniProt Q13936); test: Antagonist activity against L-type calcium channel subunit alpha-1C assessed as inactivation of channel current at 10 uM by cell based patch clamp assay

Sequence of Voltage-dependent T-type calcium channel subunit alpha-1H (Homo sapiens) (O95180 whole entry): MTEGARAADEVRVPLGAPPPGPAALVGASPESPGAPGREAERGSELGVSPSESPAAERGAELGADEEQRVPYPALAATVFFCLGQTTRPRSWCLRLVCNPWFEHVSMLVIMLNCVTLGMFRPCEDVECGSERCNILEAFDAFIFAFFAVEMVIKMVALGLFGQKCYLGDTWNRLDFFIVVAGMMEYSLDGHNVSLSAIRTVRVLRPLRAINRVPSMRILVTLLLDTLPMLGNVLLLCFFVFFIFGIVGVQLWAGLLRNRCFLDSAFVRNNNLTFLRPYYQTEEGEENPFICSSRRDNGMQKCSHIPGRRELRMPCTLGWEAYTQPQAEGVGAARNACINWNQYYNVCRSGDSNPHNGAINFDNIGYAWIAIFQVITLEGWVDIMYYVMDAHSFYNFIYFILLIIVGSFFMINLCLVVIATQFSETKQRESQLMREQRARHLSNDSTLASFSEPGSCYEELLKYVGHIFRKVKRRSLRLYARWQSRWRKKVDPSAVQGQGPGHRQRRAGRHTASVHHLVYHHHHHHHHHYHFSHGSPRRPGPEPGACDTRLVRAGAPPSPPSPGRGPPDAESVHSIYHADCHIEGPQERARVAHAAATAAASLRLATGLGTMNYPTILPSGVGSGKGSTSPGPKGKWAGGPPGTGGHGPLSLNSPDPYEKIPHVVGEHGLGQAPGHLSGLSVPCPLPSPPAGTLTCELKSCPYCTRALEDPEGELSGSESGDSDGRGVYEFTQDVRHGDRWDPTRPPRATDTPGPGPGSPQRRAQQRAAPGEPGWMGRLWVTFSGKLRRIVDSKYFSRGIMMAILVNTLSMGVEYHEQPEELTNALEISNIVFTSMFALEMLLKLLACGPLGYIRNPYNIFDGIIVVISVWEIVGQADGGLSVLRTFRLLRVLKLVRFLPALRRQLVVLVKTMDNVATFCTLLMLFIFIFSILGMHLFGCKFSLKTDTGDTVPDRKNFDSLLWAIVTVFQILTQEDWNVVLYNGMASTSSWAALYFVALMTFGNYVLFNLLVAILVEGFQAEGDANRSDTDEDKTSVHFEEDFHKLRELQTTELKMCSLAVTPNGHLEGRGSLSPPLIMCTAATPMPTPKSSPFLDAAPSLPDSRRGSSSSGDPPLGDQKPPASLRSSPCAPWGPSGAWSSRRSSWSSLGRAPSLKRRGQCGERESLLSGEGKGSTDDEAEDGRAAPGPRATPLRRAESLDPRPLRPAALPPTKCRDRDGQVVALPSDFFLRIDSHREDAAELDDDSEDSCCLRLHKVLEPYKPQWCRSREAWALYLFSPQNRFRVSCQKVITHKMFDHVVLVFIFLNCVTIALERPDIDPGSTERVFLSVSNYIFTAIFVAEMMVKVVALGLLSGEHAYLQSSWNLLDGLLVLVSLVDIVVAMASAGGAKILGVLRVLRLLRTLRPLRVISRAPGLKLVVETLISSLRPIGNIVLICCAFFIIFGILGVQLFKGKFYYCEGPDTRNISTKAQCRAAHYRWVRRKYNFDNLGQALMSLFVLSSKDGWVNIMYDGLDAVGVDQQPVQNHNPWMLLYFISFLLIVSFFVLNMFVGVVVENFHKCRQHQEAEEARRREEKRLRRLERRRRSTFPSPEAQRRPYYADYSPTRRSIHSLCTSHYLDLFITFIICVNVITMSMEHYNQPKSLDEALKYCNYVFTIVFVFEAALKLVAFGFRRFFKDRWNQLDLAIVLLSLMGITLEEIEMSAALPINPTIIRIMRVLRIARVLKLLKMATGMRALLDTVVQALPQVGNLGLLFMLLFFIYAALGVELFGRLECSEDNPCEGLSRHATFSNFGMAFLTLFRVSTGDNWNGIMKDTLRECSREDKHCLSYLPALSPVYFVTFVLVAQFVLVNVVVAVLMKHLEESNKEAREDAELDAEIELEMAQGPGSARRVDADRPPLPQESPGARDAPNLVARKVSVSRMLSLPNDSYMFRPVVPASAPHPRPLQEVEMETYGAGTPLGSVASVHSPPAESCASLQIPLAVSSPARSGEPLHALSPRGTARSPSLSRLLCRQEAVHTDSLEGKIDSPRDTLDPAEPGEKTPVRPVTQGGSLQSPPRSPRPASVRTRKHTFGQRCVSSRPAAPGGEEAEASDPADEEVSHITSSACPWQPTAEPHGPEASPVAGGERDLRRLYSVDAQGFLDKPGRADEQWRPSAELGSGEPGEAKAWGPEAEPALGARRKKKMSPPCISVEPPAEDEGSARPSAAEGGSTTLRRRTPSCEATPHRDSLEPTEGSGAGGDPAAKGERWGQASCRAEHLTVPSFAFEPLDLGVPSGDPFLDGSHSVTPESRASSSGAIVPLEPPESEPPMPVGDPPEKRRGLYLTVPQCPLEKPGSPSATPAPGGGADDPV
Sequence of Voltage-dependent L-type calcium channel subunit alpha-1C (Homo sapiens) (Q13936 whole entry, looked up): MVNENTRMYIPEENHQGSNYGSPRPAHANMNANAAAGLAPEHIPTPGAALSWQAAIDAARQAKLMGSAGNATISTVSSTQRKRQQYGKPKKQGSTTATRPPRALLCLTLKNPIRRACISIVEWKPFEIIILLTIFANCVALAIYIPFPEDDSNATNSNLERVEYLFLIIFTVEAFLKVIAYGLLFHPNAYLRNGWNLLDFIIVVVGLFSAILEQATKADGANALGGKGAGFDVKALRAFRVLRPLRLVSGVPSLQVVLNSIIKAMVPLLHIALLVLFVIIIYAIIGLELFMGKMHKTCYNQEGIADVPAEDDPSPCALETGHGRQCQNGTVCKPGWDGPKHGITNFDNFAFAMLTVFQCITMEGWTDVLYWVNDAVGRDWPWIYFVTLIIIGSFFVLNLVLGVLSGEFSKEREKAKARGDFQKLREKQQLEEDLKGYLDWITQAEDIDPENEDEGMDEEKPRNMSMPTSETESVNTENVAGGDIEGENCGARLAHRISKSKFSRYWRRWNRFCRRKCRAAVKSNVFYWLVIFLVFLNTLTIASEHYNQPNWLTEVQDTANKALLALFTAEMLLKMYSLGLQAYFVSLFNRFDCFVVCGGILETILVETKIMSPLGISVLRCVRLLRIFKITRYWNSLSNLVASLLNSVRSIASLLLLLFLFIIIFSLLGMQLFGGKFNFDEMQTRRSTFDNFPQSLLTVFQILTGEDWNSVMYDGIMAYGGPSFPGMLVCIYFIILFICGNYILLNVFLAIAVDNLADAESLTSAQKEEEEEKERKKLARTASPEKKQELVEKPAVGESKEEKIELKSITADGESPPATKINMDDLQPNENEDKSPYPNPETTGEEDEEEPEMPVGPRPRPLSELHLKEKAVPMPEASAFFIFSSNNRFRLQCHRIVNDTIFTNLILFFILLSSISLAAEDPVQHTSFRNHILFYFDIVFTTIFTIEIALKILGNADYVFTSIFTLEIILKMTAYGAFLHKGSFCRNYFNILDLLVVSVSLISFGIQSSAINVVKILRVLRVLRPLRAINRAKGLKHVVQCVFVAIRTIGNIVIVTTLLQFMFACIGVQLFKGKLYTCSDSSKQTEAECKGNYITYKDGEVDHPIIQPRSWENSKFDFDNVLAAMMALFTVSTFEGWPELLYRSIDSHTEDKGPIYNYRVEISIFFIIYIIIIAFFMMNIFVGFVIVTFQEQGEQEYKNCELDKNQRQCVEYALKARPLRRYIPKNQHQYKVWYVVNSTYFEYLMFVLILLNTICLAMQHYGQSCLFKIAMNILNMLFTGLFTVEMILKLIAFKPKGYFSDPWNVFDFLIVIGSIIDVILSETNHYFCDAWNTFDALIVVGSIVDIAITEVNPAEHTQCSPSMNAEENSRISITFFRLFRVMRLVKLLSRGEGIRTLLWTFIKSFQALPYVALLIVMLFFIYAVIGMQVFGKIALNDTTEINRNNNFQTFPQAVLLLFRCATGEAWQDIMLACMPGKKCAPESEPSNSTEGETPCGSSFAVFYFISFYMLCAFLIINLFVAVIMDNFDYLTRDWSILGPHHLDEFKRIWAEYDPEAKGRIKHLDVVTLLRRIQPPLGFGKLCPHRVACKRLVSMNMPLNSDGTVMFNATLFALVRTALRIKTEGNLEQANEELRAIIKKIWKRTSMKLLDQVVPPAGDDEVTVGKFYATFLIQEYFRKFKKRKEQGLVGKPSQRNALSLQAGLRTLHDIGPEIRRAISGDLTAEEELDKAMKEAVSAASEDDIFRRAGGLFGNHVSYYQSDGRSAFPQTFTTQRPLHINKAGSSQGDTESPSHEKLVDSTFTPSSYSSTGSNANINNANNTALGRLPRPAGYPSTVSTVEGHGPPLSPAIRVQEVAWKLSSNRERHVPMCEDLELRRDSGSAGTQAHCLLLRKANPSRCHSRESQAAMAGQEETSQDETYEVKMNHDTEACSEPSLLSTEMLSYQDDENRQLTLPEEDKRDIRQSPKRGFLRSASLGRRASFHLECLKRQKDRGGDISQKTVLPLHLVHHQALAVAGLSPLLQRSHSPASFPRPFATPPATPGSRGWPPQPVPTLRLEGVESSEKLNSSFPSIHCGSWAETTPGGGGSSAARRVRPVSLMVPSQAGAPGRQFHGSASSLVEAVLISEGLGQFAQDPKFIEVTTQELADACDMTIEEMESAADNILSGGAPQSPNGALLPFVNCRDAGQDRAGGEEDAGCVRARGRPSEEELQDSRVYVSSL

SMILES: O=C1CC2(CCN(C(c3ccc(F)cc3)c3ccc(F)cc3)CC2)CN1Cc1ccc(Cl)cc1
inhibition [1]: 68%
inhibition [2]: 42%

SMILES: COc1cccc(CN2CCC3(CCN(C(c4ccc(F)cc4)c4ccc(F)cc4)CC3)C2=O)c1
Ratio IC50 [3]: 8
inhibition [4]: 52%
inhibition [5]: 67%

SMILES: CC(C)OCCCN1CCC2(CCN(C(c3ccc(F)cc3)c3ccc(F)cc3)CC2)C1=O
inhibition [1]: 76%
inhibition [7]: 56%

SMILES: CC(C)N1CCC2(CCN(C(c3ccc(F)cc3)c3ccc(F)cc3)CC2)C1=O
inhibition [8]: 57%
inhibition [7]: 52%

SMILES: CC(C)(C)CCN1CCC2(CCN(C(c3ccc(F)cc3)c3ccc(F)cc3)CC2)C1=O
inhibition [6]: 44%
inhibition [5]: 60%

SMILES: Fc1ccc(C(c2ccc(F)cc2)N2CCC3(CCN(Cc4ccc(Cl)cc4)C3)CC2)cc1
inhibition [1]: 66%

SMILES: O=C1N(CCCN2CCOCC2)CCC12CCN(C(c1ccc(F)cc1)c1ccc(F)cc1)CC2
inhibition [1]: 35%

SMILES: O=C1NCCC12CCN(C(c1ccc(F)cc1)c1ccc(F)cc1)CC2
inhibition [8]: < 20%
inhibition [1]: inactive

SMILES: O=C(c1ccc(Cl)cc1)N1CCC2(CCN(C(c3ccc(F)cc3)c3ccc(F)cc3)CC2)C1
inhibition [6]: 59%
inhibition [2]: 44%

SMILES: O=C1N(Cc2ccc(Cl)cc2)CCC12CCNCC2
inhibition [8]: < 20%

SMILES: COCCCN1CCC2(CCN(C(c3ccc(F)cc3)c3ccc(F)cc3)CC2)C1=O
inhibition [1]: 44%
inhibition [10]: 58%

The remaining lines, values ahead:

inhibition [4]: < 20%
inhibition [6]: 91%
SMILES: O=C1N(Cc2cccc(Cl)c2)CCC12CCN(C(c1ccc(F)cc1)c1ccc(F)cc1)CC2

inhibition [6]: 56%
SMILES: O=C1N(Cc2ccc(Cl)cc2)CCC12CCN(Cc1cccc(Oc3ccccc3)c1)CC2

inhibition [4]: 30%
SMILES: O=C1N(CCc2ccc(Cl)cc2)CCC12CCN(C(c1ccc(F)cc1)c1ccc(F)cc1)CC2

inhibition [1]: 28%
SMILES: COCCN1CCC2(CCN(C(c3ccc(F)cc3)c3ccc(F)cc3)CC2)C1=O

inhibition [8]: 65%
inhibition [7]: 59%
SMILES: O=C1N(Cc2ccc(Cl)cc2)CCC12CCN(Cc1ccc(F)cc1)CC2

inhibition [8]: 67%
SMILES: CCOc1ccccc1CN1CCC2(CC1)CCN(Cc1ccc(Cl)cc1)C2=O

inhibition [6]: 40%
SMILES: CC(C)C(C(C)C)N1CCC2(CCN(Cc3ccc(Cl)cc3)C2=O)CC1

Ratio IC50 [3]: 10
inhibition [4]: 58%
inhibition [2]: 31%
SMILES: O=C1N(Cc2ccc(Cl)cc2)CCC12CCN(C(c1ccc(F)cc1)c1ccc(F)cc1)CC2

inhibition [1]: < 20%
SMILES: O=C(c1ccc(F)cc1)N1CCC2(CC1)CCN(Cc1ccc(Cl)cc1)C2=O

inhibition [8]: 45%
inhibition [7]: 54%
SMILES: O=C1N(Cc2ccc(Cl)cc2)CCC12CCN(S(=O)(=O)c1ccc(F)cc1)CC2

inhibition [9]: 59%
SMILES: O=C1N(Cc2ccc(Cl)cc2)CCC12CCN(CC(c1ccc(F)cc1)c1ccc(F)cc1)CC2

— ChEMBL document CHEMBL1268989, “Design, syntheses, and SAR of 2,8-diazaspiro[4.5]decanones as T-type calcium channel antagonists” (Bioorg Med Chem Lett, 2010)
